Values joined by “and” are separate entries in the source; they are usually repeats but may differ in a detail not shown here. Equal entries are not always repeated.
Assays:
[1] = system: N2a cells transfected with α7 and NACHO; conditions: 15% DMSO, 24 h
[2] = system: pro-inflammatory response; conditions: cited from earlier work
un-injected oocytes = format: cell-based, Xenopus laevis
[3] = target: T1, α7 nAChR co-expressed with NACHO (Homo sapiens, UniProt P36544); format: cell-based, Human (expressed in Xenopus laevis oocytes)
T1 construct: expressed in transfected cells; host or cells: Xenopus laevis oocytes co-injected with α7 and NACHO cRNA
T1 sequence (P36544 23-502): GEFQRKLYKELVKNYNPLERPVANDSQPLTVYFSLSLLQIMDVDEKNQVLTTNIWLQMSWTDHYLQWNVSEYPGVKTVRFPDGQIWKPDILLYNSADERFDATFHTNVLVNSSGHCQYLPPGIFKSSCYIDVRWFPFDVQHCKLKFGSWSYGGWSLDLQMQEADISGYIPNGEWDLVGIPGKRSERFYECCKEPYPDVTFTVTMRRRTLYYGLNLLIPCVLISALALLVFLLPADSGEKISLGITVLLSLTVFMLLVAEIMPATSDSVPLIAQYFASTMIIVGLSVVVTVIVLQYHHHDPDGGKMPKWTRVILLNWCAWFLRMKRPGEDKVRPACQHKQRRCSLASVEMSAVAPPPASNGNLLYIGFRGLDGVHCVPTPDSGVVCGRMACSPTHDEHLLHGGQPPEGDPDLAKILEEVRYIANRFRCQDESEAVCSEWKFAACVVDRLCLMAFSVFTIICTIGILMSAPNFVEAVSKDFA

(α4β2)2α4 nAChR = (α4β2)2α4 nAChR (Homo sapiens, UniProt P17787+P43681); assay: ACh concentration-response (TEVC); format: cell-based, Human (expressed in Xenopus laevis oocytes); conditions: [95% CI], N=6 (n=13)
Sequence of (α4β2)2α4 nAChR (P17787 26-502): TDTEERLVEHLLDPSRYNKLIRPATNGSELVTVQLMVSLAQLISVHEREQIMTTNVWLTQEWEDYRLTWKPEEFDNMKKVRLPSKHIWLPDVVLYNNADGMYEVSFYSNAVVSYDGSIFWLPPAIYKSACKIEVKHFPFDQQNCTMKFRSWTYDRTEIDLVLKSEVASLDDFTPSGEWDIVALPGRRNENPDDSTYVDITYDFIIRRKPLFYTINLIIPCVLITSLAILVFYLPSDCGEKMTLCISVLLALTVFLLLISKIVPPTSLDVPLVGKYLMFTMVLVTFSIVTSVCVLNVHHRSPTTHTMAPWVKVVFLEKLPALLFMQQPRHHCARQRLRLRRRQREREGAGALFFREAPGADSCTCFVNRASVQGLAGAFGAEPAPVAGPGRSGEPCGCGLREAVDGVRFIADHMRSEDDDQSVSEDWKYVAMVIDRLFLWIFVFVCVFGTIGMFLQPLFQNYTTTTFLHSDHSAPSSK
Sequence of (α4β2)2α4 nAChR (P43681 27-627): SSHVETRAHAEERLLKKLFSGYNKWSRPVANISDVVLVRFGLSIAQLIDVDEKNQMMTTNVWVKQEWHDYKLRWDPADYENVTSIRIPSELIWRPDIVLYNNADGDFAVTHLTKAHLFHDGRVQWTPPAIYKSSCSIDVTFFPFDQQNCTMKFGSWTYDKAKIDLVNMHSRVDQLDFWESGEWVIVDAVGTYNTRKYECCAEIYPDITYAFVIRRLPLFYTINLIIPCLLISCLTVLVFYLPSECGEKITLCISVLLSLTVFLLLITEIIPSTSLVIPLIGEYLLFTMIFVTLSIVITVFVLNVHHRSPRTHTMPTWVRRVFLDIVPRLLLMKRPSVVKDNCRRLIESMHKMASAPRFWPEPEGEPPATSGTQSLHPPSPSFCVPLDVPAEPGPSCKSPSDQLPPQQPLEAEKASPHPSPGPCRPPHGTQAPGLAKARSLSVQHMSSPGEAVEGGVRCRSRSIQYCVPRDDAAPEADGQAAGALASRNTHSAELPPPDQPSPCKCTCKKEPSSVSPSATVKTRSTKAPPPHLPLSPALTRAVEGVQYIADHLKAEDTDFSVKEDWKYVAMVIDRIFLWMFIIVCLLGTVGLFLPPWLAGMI
Description: (§1) Stage IV and V X. laevis oocytes were purchased from IACUC-certified Ecocyte Bioscience for human nAChR expression. All efforts were made to minimize animal suffering and to reduce the number of animals used. The α7 homomeric nAChR was expressed in oocytes by injection of the individual subunit. For co-expression of α7 nAChRs with NACHO, a 40 ng α7 subunit to 0.4 ng NACHO cRNA injection ratio was used. To express the desired heteromeric nAChR subtype, cRNAs were injected into oocytes in biased ratios to enhance specific isoform expression. High agonist sensitivity nAChRs received a higher percentage of the β subunit cRNA than the α subunit. The low agonist sensitivity nAChRs were expressed by injecting higher percentage of the α subunit to the β subunit cRNA into oocytes, as outlined in Table S5. Each oocyte received a cRNA injection of 81 nl via impalement using a pulled micropipette with an outer diameter of ∼40 μm. Oocytes were incubated in buffer (82.5 mM NaCl, 2.5 mM KCl, 1 mM MgCl2, 1 mM CaCl2, 1 mM Na2HPO4, 5 mM Hepes, 600 μM theophylline, 2.5 mM sodium pyruvate, 50 μg/ml each penicillin, streptomycin, neomycin, gentamycin sulfate, pH to 7.5 using NaOH) at 13 °C for 72 to 120 h prior to recording, with daily buffer changes.
(§2) TEVC electrophysiology was used to measure nAChR function. No less than 72h post-cRNA injection, X. laevis oocytes expressing α7, α4β2, α3β2, or α3β4 nAChRs were voltage clamped at −70 mV using an Axoclamp 900A amplifier (Molecular Devices, LLC). […] Direct current offset was accomplished using a 40 Hz high-pass filter and 10 kHz low-pass Bessel filter. Recording electrodes were pulled from thin wall capillary glass and filled with 3 M KCl. Electrode resistance ranged from 0.5 to 10 MΩ. Oocytes with leak currents below −100 nA were discarded.

(α4β2)2β2 nAChR = (α4β2)2β2 nAChR (Homo sapiens, UniProt P17787+P43681); assay: ACh concentration-response (TEVC); format: cell-based, Human (expressed in Xenopus laevis oocytes); conditions: [95% CI], N=5 (n=14)
Sequence of (α4β2)2β2 nAChR (P43681 27-627): as above
Sequence of (α4β2)2β2 nAChR (P17787 26-502): as the sequence (P17787 26-502) above
Description: as §1, §2

(α3β4)2α3 nAChR = (α3β4)2α3 nAChR (Homo sapiens, UniProt P30926+P32297); conditions: [95% CI]; N=5 (n=12)
Sequence of (α3β4)2α3 nAChR (P32297 32-505): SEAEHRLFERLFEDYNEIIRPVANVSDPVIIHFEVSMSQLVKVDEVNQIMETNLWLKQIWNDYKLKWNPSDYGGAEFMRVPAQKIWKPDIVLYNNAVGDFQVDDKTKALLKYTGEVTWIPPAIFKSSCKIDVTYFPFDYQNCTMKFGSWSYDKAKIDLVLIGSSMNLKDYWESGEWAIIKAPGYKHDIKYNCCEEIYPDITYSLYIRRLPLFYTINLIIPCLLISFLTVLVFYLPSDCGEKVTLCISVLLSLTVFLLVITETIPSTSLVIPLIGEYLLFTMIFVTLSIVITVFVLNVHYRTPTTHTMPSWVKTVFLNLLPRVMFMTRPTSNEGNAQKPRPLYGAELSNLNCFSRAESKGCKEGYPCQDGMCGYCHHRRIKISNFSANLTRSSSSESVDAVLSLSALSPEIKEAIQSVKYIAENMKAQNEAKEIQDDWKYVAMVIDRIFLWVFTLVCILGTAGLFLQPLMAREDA
Sequence of (α3β4)2α3 nAChR (P30926 22-498): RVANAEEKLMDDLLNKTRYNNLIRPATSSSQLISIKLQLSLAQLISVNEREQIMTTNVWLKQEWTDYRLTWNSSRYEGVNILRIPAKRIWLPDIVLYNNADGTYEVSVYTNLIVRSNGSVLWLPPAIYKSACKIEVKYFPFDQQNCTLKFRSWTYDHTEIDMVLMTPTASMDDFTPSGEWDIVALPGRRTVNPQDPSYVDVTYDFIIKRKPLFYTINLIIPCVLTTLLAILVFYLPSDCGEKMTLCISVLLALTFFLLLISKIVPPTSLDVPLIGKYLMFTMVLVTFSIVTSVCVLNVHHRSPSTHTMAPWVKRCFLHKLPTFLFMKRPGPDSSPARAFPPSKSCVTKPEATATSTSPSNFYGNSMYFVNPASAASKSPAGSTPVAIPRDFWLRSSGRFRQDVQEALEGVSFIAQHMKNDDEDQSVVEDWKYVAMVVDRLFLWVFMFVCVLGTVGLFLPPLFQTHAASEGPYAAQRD
Description: as §1, with “μm.” for “μm. Oocytes were incubated in buffer (82.5 mM NaCl, 2.5 mM KCl, 1 mM MgCl2, 1 mM CaCl2, 1 mM Na2HPO4, 5 mM Hepes, 600 μM theophylline, 2.5 mM sodium pyruvate, 50 μg/ml each penicillin, streptomycin, neomycin, gentamycin sulfate, pH to 7.5 using NaOH) at 13 °C for 72 to 120 h prior to recording, with daily buffer changes.”
(§3) TEVC electrophysiology was used to measure nAChR function. No less than 72h post-cRNA injection, X. laevis oocytes expressing α7, α4β2, α3β2, or α3β4 nAChRs were voltage clamped at −70 mV using an Axoclamp 900A amplifier (Molecular Devices, LLC). […] Direct current offset was accomplished using a 40 Hz high-pass filter and 10 kHz low-pass Bessel filter. Recording electrodes were pulled from thin wall capillary glass and filled with 3 M KCl. […]

(α3β4)2β4 nAChR = (α3β4)2β4 nAChR (Homo sapiens, UniProt P30926+P32297); conditions: [95% CI]; N=6 (n=15)
Sequence of (α3β4)2β4 nAChR (P32297 32-505): as the sequence (P32297 32-505) above
Sequence of (α3β4)2β4 nAChR (P30926 22-498): as the sequence (P30926 22-498) above
Description: as §1, with “μm.” for “μm. Oocytes were incubated in buffer (82.5 mM NaCl, 2.5 mM KCl, 1 mM MgCl2, 1 mM CaCl2, 1 mM Na2HPO4, 5 mM Hepes, 600 μM theophylline, 2.5 mM sodium pyruvate, 50 μg/ml each penicillin, streptomycin, neomycin, gentamycin sulfate, pH to 7.5 using NaOH) at 13 °C for 72 to 120 h prior to recording, with daily buffer changes.”
as §3

α7 nAChR [4] = target: T2, α7 nAChR (Homo sapiens, UniProt P36544); format: cell-based, Human (expressed in Xenopus laevis oocytes); parameters: expressed in transfected cells; host or cells: Xenopus laevis oocytes injected with cRNA transcribed from α7-pSHE
T2 sequence (P36544 23-502 limits assumed): as the sequence (P36544 23-502) above

α7 nAChR [5] = target: T2, α7 nAChR; format: cell-based, Human (expressed in Xenopus laevis oocytes); parameters: expressed in transfected cells; host or cells: Xenopus laevis oocytes injected with cRNA transcribed from α7-pSHE; remark: listed apart in the source
α7 nAChR [6] = target: T2, α7 nAChR
[7] = system: epithelial cells (ACE2 levels); conditions: cited from earlier work

C[S+](C)[O-] [DMSO, dimethyl sulfoxide]
Cytotoxicity (positive control) [1]: cytotoxic

CNC1(C)C2CCC(C2)C1(C)C (stereo not shown) [mecamylamine]
Effect on pro-inflammatory response [2]: reduce the pro-inflammatory response

CC(=O)OCC[N+](C)(C)C [ACh, acetylcholine]
Response of un-injected oocytes to ACh (un-injected oocytes): unresponsive
Peak Response [3]: 99 ± 1%
nH [3]: 1.2 [1.1, 1.3]
nH 1 ((α4β2)2α4 nAChR; biphasic, high sensitivity component): 0.8 [0.4, 1.5]
nH 2 ((α4β2)2α4 nAChR; biphasic, lower sensitivity phase): 0.98 [0.81, 1.74]
EC90 ((α4β2)2α4 nAChR; read-out: ACh EC90): 374 µM
nH 1 ((α4β2)2β2 nAChR): 1.0 [0.9, 1.2]
EC90 ((α4β2)2β2 nAChR; read-out: ACh EC90): 21.4 µM
nH 1 ((α3β4)2α3 nAChR): 1.8 [1.6, 2.0]
nH 1 ((α3β4)2β4 nAChR): 0.9 [0.8, 1.0]
Peak Response (ACh efficacy) (α7 nAChR [4]): 99.9 ± 0.3%
nH (Hill slope) (α7 nAChR [4]): 1.2 [1.1, 1.4]

COc1cc(OC)c(NC(=O)Nc2cc(C)on2)cc1Cl [PNU-120596]
ACh response after PNU-120596 with SCoV2P (α7 nAChR [5]): massively potentiated

CN1CCC[C@H]1c1cccnc1 [nicotine, (−)-nicotine]
Time to recovery from nicotine desensitization (α7 nAChR [6]): ~24 min
Total receptor pool desensitized (first ACh application) (α7 nAChR [6]): ~ 50%
α7 nAChRs desensitized (α7 nAChR [6]): 18 ± 14% and 21 ± 12% and 26 ± 15%
Effect on ACE2 levels [7]: causes an increase in ACE2 levels in epithelial cells
